According to patent publication US10544140B2, “Pharmaceutical composition containing, as active ingredient, 7-azaindolin-2-one derivative or pharmaceutically acceptable salt thereof” (LG CHEM, LTD., priority 2015, dated 2020):

Tests used:
[1] = system: MDA-MB-231 (breast cancer); test: Cytotoxicity test by MTT assay, MDA-MB-231; type: cell-based, human; conditions: Homo sapiens, MBA-MB-231, 48 h
Procedure: (§1) A cytotoxicity test was measured by MTT assay. Each cell line was cultured in a 96-well plate at a density of 1×10^4 cells/well. After 24 hours, the culture medium containing 1% FBS (fetal bovine serum) was treated and reacted with compounds or solutions of compounds for 48 hours. MTT (3-(4,5-dimethylthiazol-2-yl)-2,5-diphenyltetrazolium bromide) solution (5 mg/mL) was added to each well and reacted for 4 hours in an incubator. […] After reacting in an incubator for 30 minutes, the formation of formazan was quantified using a microplate reader at an absorbance of 540 nm. […] The human cancer cell lines used herein are MCF-7 (breast cancer), MDA-MB-231 (breast cancer), HT-29 (colon cancer), DU145 (prostate cancer), U937 (myeloid leukemia), A549 (lung cancer), PANC-1 (pancreatic cancer) and MIA PaCa-2 (pancreatic cancer).

[2] = Cytotoxicity test by MTT assay, CHO-K1 normal cell line; type: cell-based; conditions: Chinese hamster, CHO-K1 cells (normal cell line)
Procedure: (§2) A cytotoxicity test was measured by MTT assay. Each cell line was cultured in a 96-well plate at a density of 1×10^4 cells/well. After 24 hours, the culture medium containing 1% FBS (fetal bovine serum) was treated and reacted with compounds or solutions of compounds for 48 hours. MTT (3-(4,5-dimethylthiazol-2-yl)-2,5-diphenyltetrazolium bromide) solution (5 mg/mL) was added to each well and reacted for 4 hours in an incubator. […] After reacting in an incubator for 30 minutes, the formation of formazan was quantified using a microplate reader at an absorbance of 540 nm.

DU145 (prostate cancer) = test: Cytotoxicity test by MTT assay, DU145; type: cell-based, human; conditions: DU-145; for IC50: Homo sapiens, DU145, 48 h
Procedure: as §1

[3] = system: MCF-7 (human breast cancer cell line); test: Cytotoxicity test by MTT assay, MCF-7; type: cell-based; conditions: Homo sapiens, MCF7; for cytotoxicity at 30 µM: MCF-7, 30 μM, 48 h, read-out: Cell viability (% inhibition); for IC50: MCF-7, 48 h
Procedure: (§3) A cytotoxicity test was measured by MTT assay. Each cell line was cultured in a 96-well plate at a density of 1×10^4 cells/well. […] MTT (3-(4,5-dimethylthiazol-2-yl)-2,5-diphenyltetrazolium bromide) solution (5 mg/mL) was added to each well and reacted for 4 hours in an incubator. […] After reacting in an incubator for 30 minutes, the formation of formazan was quantified using a microplate reader at an absorbance of 540 nm. […] At this time, sunitinib was used as a control group. […] The human cancer cell lines used herein are MCF-7 (breast cancer), MDA-MB-231 (breast cancer), HT-29 (colon cancer), DU145 (prostate cancer), U937 (myeloid leukemia), A549 (lung cancer), PANC-1 (pancreatic cancer) and MIA PaCa-2 (pancreatic cancer).

A549 (lung cancer) = test: Cytotoxicity test by MTT assay, A549; type: cell-based, human; conditions: Homo sapiens, A549, 48 h
Procedure: as §1

[4] = Cytotoxicity test by MTT assay, HEK293 normal cell line; type: cell-based; conditions: human, HEK293 cells (normal cell line)
Procedure: as §2

HT-29 (colon cancer) = test: Cytotoxicity test by MTT assay, HT-29; type: cell-based, human; conditions: Homo sapiens, HT-29, 48 h
Procedure: as §1

[5] = system: PANC-1 (human pancreatic cancer cell line); test: Cytotoxicity test by MTT assay, PANC-1; type: cell-based; conditions: for cytotoxicity at 30 µM / IC50: Homo sapiens; for cytotoxicity at 30 µM: PANC-1, 30 μM, 48 h, read-out: Cell viability (% inhibition); for IC50: PANC-1, 48 h
Procedure: as §3

U937 (myeloid leukemia) = test: Cytotoxicity test by MTT assay, U937; type: cell-based, human; conditions: Homo sapiens, U-937; U937, 48 h
Procedure: as §1

| Structure (SMILES) | IC50 [1] [µM] | IC50 at 48 h [2] [µM] | IC50 (DU145 (prostate cancer)) [µM] | cytotoxicity at 30 µM [3] [%] | IC50 [3] [µM] | IC50 (A549 (lung cancer)) [µM] | IC50 at 48 h [4] [µM] | IC50 (HT-29 (colon cancer)) [µM] | cytotoxicity at 30 µM [5] [%] | IC50 (U937 (myeloid leukemia)) [µM] | cytotoxicity compared with the reference drug sunitinib (DU145 (prostate cancer)) | IC50 [5] [µM] | cytotoxicity compared with the reference drug sunitinib ([5]; PANC-1) |
| --- | --- | --- | --- | --- | --- | --- | --- | --- | --- | --- | --- | --- | --- |
| CCCCC/C=C1\C(=O)Nc2nc(C)c(O)c(C)c21 [Compound I-01, (Z)-3-Hexylidene-5-hydroxy-4,6-dimethyl-1H-pyrrolo[2,3-b]pyridin-2(3H)-one] | 12.6 | 20.9 | 11 | 76.9 | 13.8 | 7.6 | > 90 | 12.9 | 77.4 | 11.5 | – | – | – |
| COc1ccc(OC)c(/C=C2\C(=O)Nc3nc(C)c(O)c(C)c32)c1 [Compound I-15, (Z)-3-(2,5-Dimethoxybenzylidene)-5-hydroxy-4,6-dimethyl-1H-pyrrolo[2,3-b]pyridin-2(3H)-one] | 22.9 | 47.5 | 5.55 | 67.5 | 20.9 | 47.5 | 37.8 | 16.6 | 69.2 | 33 | greater than or equal to that of the reference drug sunitinib | 19.5 | – |
| COc1ccc(Br)cc1/C=C1\C(=O)Nc2nc(C)c(O)c(C)c21 [Compound I-17, (Z)-3-(5-bromo-2-methoxybenzylidene)-5-hydroxy-4,6-dimethyl-1H-pyrrolo[2,3-b]pyridin-2(3H)-one] | 10.5 | 30.1 | 4.57 | 74.7 | 11 | 10.1 | 33 | 25.1 | 71.7 | 12.6 | greater than or equal to that of the reference drug sunitinib | – | – |
| Cc1nc2c(c(C)c1O)/C(=C/c1ccncc1)C(=O)N2 [Compound I-23, (Z)-5-Hydroxy-4,6-dimethyl-3-(pyridin-4-ylmethylene)-1H-pyrrolo[2,3-b]pyridin-2(3H)-one] | – | 57 | 30.1 | 63.2 | 19.1 | 30.1 | 45.7 | 30.1 | 65.4 | 34.5 | – | 19.1 | – |
| Cc1nc2c(c(C)c1O)/C(=C/c1ccoc1)C(=O)N2 [Compound I-28, (Z)-3-(Furan-3-ylmethylene)-5-hydroxy-4,6-dimethyl-1H-pyrrolo[2,3-b]pyridin-2(3H)-one] | – | > 90 | 22.9 | 66.3 | 22.9 | – | 19.9 | – | 26.1 | 31.5 | – | – | – |
| Cc1cc(C)c(/C=C2\C(=O)Nc3nc(C)c(O)c(C)c32)[nH]1 [Compound I-36, (Z)-3-((3,5-Dimethyl-1H-pyrrol-2-yl)methylene)-5-hydroxy-4,6-dimethyl-1H-pyrrolo[2,3-b]pyridin-2(3H)-one] | 10.2 | 50.1 | – | 47.3 | 31.6 | 13.9 | > 90 | 16.6 | 44.7 | 33.9 | – | – | – |
| Cc1nc2c(c(C)c1O)/C(=C/c1[nH]c(C)c(C(=O)O)c1C)C(=O)N2 [Compound I-37, (Z)-5-((5-Hydroxy-4,6-dimethyl-2-oxo-1H-pyrrolo[2,3-b]pyridin-3(2H)-ylidene)methyl)-2,4-dimethyl-1H-pyrrole-3-carboxylic acid] | 19.5 | 33.1 | – | 60.4 | 14.8 | 19.9 | 38 | 26.2 | 55.8 | 14.8 | – | – | – |
| CCOC(=O)c1c(C)[nH]c(/C=C2\C(=O)Nc3nc(C)c(O)c(C)c32)c1C [Compound I-38, (Z)-Ethyl-5-((5-hydroxy-4,6-dimethyl-2-oxo-1H-pyrrolo[2,3-b]pyridin-3(2H)-ylidene)methyl)-2,4-dimethyl-1H-pyrrole-3-carboxylate] | 24.5 | 24 | – | 41.7 | 39.8 | 18.2 | > 90 | 22.9 | 35.7 | 12.9 | – | – | – |
| Cc1nc2c(c(C)c1O)/C(=C/c1[nH]c(C)c(C(=O)NCCN3CCCCC3)c1C)C(=O)N2 [Compound I-42, (Z)-5-((5-Hydroxy-4,6-dimethyl-2-oxo-1H-pyrrolo[2,3-b]pyridin-3(2H)-ylidene)methyl)-2,4-dimethyl-N-(2-(piperidin-1-yl)ethyl)-1H-pyrrole-3-carboxamide] | 8.12 | 51.3 | – | 63.4 | 8.7 | 13.2 | 21.4 | 15.2 | 70.7 | 14.8 | – | – | – |
| Cc1nc2c(c(C)c1O)/C(=C/c1[nH]c(C)c(C(=O)N3CCCCC3)c1C)C(=O)N2 [Compound I-43, (Z)-3-((3,5-Dimethyl-4-(piperidine-1-carbonyl)-1H-pyrrol-2-yl)methylene)-5-hydroxy-4,6-dimethyl-1H-pyrrolo[2,3-b]pyridin-2(3H)-one] | 14.8 | 14.8 | – | 50.5 | 26.9 | 12.1 | > 90 | 16.6 | 38.5 | 9.77 | – | – | – |
| Cc1nc2c(c(C)c1O)/C(=C/c1[nH]c(C)c(C(=O)N3CCCC3)c1C)C(=O)N2 [Compound I-44, (Z)-3-((3,5-Dimethyl-4-(pyrrolidine-1-carbonyl)-1H-pyrrol-2-yl)methylene)-5-hydroxy-4,6-dimethyl-1H-pyrrolo[2,3-b]pyridin-2(3H)-one] | 43.6 | 58.9 | – | 47.7 | 34.7 | 50.1 | > 90 | 43.4 | 31.8 | 52.5 | – | – | – |
| Cc1nc2c(c(C)c1O)/C(=C/c1[nH]c(C)c(C(=O)N3CCN(C)CC3)c1C)C(=O)N2 [Compound I-45, (Z)-3-((3,5-Dimethyl-4-(4-methylpiperazine-1-carbonyl)-1H-pyrrol-2-yl)methylene)-5-hydroxy-4,6-dimethyl-1H-pyrrolo[2,3-b]pyridin-2(3H)-one] | 16.2 | 23.4 | – | 60.7 | 10.2 | 26.3 | 38 | 36.1 | 48.7 | 26.2 | – | – | – |
| Cc1nc2c(c(C)c1O)/C(=C/c1[nH]c(C)c(C(=O)N3CCOCC3)c1C)C(=O)N2 [Compound I-46, (Z)-3-((3,5-Dimethyl-4-(morpholine-4-carbonyl)-1H-pyrrol-2-yl)methylene)-5-hydroxy-4,6-dimethyl-1H-pyrrolo[2,3-b]pyridin-2(3H)-one] | 14.5 | > 90 | 22.9 | 71.2 | 12.6 | 30.1 | > 90 | 57.5 | 71.1 | – | – | 11.5 | greater than or equal to that of the reference drug sunitinib |
| COc1cccc2c1C(=O)c1c(O)c3c(c(O)c1C2=O)C[C@@](O)(C(=O)CO)C[C@@H]3O[C@H]1C[C@H](N)[C@H](O)[C@H](C)O1 [Doxorubicin, reference compound] | – | 12.1 | – | – | – | – | 0.32 | – | – | – | – | – | – |
